Structures can show the parent of a compound that is named as a salt.
molecular target: T1, human HSD-1 (recombinant HSD-1) (Homo sapiens, UniProt P28845); assay: HSD-1 activity inhibitory action in vitro (SPA, conversion of cortisone to cortisol); type: biochemical; settings: recombinant human HSD-1 expressed using baculovirus system; 10 nM 3H cortisone, 500 μM NADPH; room temperature 90 to 120 min; read-out: hHSD1 (IC50 (nM))
T1 construct: made in house
T1 sequence (P28845 whole entry): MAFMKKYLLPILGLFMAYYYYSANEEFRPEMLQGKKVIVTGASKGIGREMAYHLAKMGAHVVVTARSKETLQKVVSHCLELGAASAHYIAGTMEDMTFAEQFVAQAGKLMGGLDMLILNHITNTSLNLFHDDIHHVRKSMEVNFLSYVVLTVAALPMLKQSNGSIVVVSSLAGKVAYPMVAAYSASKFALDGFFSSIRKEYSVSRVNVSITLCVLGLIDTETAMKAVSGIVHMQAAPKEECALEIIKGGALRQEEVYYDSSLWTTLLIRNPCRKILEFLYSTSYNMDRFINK

IC50 | SMILES
< 30 nM | O=C1CN(C(=O)N2CCC(n3ncc(C(=O)N4CC[C@@H](c5ccccc5C(F)(F)F)C4)c3C3CC3)CC2)CCN1 [Example 26, 1-{5-cyclopropyl-1-[1-(3-oxopiperazine-1-carbonyl)piperidin-4-yl]-1H-pyrazole-4-carbonyl}-[(S)-3-(2-trifluoromethylphenyl)]pyrrolidine]
< 30 nM | O=C(O)c1ccc(N2CCC(n3ncc(C(=O)N4CCC(c5ccccc5C(F)(F)F)C4)c3C3CC3)CC2)cc1 (centres unmarked) [Example 113, 4-(4-{5-cyclopropyl-4-[3-(2-trifluoromethylphenyl)pyrrolidine-1-carbonyl]pyrazol-1-yl}piperidin-1-yl)benzoic acid]
< 30 nM | CC(C)NC(=O)N1CCC(n2ncc(C(=O)N3CC[C@@H](c4ccccc4C(F)(F)F)C3)c2C2CC2)CC1 [Example 125, 1-{5-cyclopropyl-1-[1-(1-isopropylcarbamoyl)piperidin-4-yl]-1H-pyrazole-4-carbonyl}-[(S)-3-(2-trifluoromethylphenyl)]pyrrolidine]
< 30 nM | NC(=O)C1CCN(C(=O)N2CCC(n3ncc(C(=O)N4CC[C@@H](c5ccccc5C(F)(F)F)C4)c3C3CC3)CC2)CC1 [Example 33, 1-{1-[1-(4-carbamoylpiperidine-1-carbonyl)piperidin-4-yl]-5-cyclopropyl-1H-pyrazole-4-carbonyl}-[(S)-3-(2-trifluoromethylphenyl)]pyrrolidine]
< 30 nM | CC(C)(C(N)=O)N1CCC(n2ncc(C(=O)N3CC[C@@H](c4ccccc4C(F)(F)F)C3)c2C2CC2)CC1 [Example 96, 1-{1-[1-(1-carbamoyl-1-methylethyl)piperidin-4-yl]-5-cyclopropyl-1H-pyrazole-4-carbonyl}-[(S)-3-(2-trifluoromethylphenyl)]pyrrolidine hydrochloride]
< 30 nM | COC1(c2c(C(=O)N3CCC(c4ccccc4C(F)(F)F)C3)cnn2C2CCN(C(=O)Nc3ccccc3F)CC2)CC1 (centres unmarked) [Example 134, 1-{1-[1-(2-fluorophenylcarbamoyl)piperidin-4-yl]-5-(1-methoxycyclopropyl)-1H-pyrazole-4-carbonyl}-3-(2-trifluoromethylphenyl)pyrrolidine]
< 30 nM | O=C(O)c1csc(N2CCC(n3ncc(C(=O)N4CCC(c5ccccc5C(F)(F)F)C4)c3C3CC3)CC2)n1 (centres unmarked) [Example 116, 2-(4-{5-cyclopropyl-4-[3-(2-trifluoromethylphenyl)pyrrolidine-1-carbonyl]pyrazol-1-yl}piperidin-1-yl)thiazole-4-carboxylic acid]
< 30 nM | O=C(Nc1ccccc1F)N1CCC(n2ncc(C(=O)N3CCC(c4cccnc4)C3)c2C2CC2)CC1 (centres unmarked) [Example 3, 1-{5-cyclopropyl-1-[1-(2-fluorophenylcarbamoyl)piperidin-4-yl]-1H-pyrazole-4-carbonyl}-3-(pyridin-3-yl)pyrrolidine]
< 30 nM | CN(C)CCNC(=O)N1CCC(n2ncc(C(=O)N3CC[C@@H](c4ccccc4C(F)(F)F)C3)c2C2CC2)CC1 [Example 13, 1-{5-cyclopropyl-1-[1-(2-dimethylaminoethylcarbamoyl)piperidin-4-yl]-1H-pyrazole-4-carbonyl}-[(S)-3-(2-trifluoromethylphenyl)]pyrrolidine hydrochloride]
< 30 nM | CN1CCC(NC(=O)N2CCC(n3ncc(C(=O)N4CC[C@@H](c5ccccc5C(F)(F)F)C4)c3C3CC3)CC2)CC1 [Example 42, 1-{5-cyclopropyl-1-[1-(1-methylpiperidin-4-yl-carbamoyl)piperidin-4-yl]-1H-pyrazole-4-carbonyl}-[(S)-3-(2-trifluoromethylphenyl)]pyrrolidine hydrochloride]
< 30 nM | CC1(c2c(C(=O)N3CCC(c4cccnc4)C3)cnn2C2CCN(C(=O)Nc3ccc(C(F)(F)F)cc3)CC2)CC1 (centres unmarked) [Example 133, 1-{5-(1-methylcyclopropyl)-1-[1-(4-trifluoromethylphenylcarbamoyl)piperidin-4-yl]-1H-pyrazole-4-carbonyl}-3-(pyridin-3-yl)pyrrolidine]
< 30 nM | O=C(O)c1cccc(N2CCC(n3ncc(C(=O)N4CCC(c5ccccc5C(F)(F)F)C4)c3C3CC3)CC2)c1 (centres unmarked) [Example 114, 3-(4-{5-cyclopropyl-4-[3-(2-trifluoromethylphenyl)pyrrolidine-1-carbonyl]pyrazol-1-yl}piperidin-1-yl)benzoic acid]
< 30 nM | CS(=O)(=O)NC(=O)N1CCC(n2ncc(C(=O)N3CC[C@@H](c4ccccc4C(F)(F)F)C3)c2C2CC2)CC1 [Example 56, 1-[5-cyclopropyl-1-(1-methanesulfonylaminocarbonylpiperidin-4-yl)-1H-pyrazole-4-carbonyl]-[(S)-3-(2-trifluoromethylphenyl)]pyrrolidine]
< 30 nM | NC(=O)c1ccc(N2CCC(n3ncc(C(=O)N4CCC(c5ccccc5C(F)(F)F)C4)c3C3CC3)CC2)cc1 (centres unmarked) [Example 165, 1-{1-[1-(4-carbamoylphenyl)piperidin-4-yl]-5-cyclopropyl-1H-pyrazole-4-carbonyl}-3-(2-trifluoromethylphenyl)pyrrolidine]
< 30 nM | O=C(c1cnn(C2CCN(C(=O)N3CCC[C@H]3CO)CC2)c1C1CC1)N1CC[C@@H](c2ccccc2C(F)(F)F)C1 [Example 27, 1-(5-cyclopropyl-1-{1-[(S)-2-hydroxymethylpyrrolidine-1-carbonyl]piperidin-4-yl}-1H-pyrazole-4-carbonyl)-[(S)-3-(2-trifluoromethylphenyl)]pyrrolidine]
< 30 nM | NC(=O)C1(CN2CCC(n3ncc(C(=O)N4CC[C@@H](c5ccccc5C(F)(F)F)C4)c3C3CC3)CC2)CC1 [Example 106, 1-{1-[1-(1-carbamoylcyclopropylmethyl)piperidin-4-yl]-5-cyclopropyl-1H-pyrazole-4-carbonyl}-[(S)-3-(2-trifluoromethylphenyl)]pyrrolidine hydrochloride]
< 30 nM | NCCNC(=O)N1CCC(n2ncc(C(=O)N3CC[C@@H](c4ccccc4C(F)(F)F)C3)c2C2CC2)CC1 [Example 11, 1-{1-[1-(2-aminoethylcarbamoyl)piperidin-4-yl]-5-cyclopropyl-1H-pyrazole-4-carbonyl}-[(S)-3-(2-trifluoromethylphenyl)]pyrrolidine hydrochloride]
< 30 nM | O=C(c1cnn(C2CCN(CC3(C(=O)NCCO)CC3)CC2)c1C1CC1)N1CC[C@@H](c2ccccc2C(F)(F)F)C1 [Example 107, 1-(5-cyclopropyl-1-{1-[1-(2-hydroxyethylcarbamoyl)cyclopropylmethyl]piperidin-4-yl}-1H-pyrazole-4-carbonyl)-[(S)-3-(2-trifluoromethylphenyl)]pyrrolidine hydrochloride]
< 30 nM | NC(=O)[C@H]1CC[C@H](n2ncc(C(=O)N3CC[C@@H](c4ccccc4C(F)(F)F)C3)c2C2CC2)CC1 [Example 130, 1-[1-(trans-4-carbamoylcyclohexyl)-5-cyclopropyl-1H-pyrazole-4-carbonyl]-[(S)-3-(2-trifluoromethylphenyl)]pyrrolidine]
< 30 nM | O=C(NC1(CO)CC1)N1CCC(n2ncc(C(=O)N3CC[C@@H](c4ccccc4C(F)(F)F)C3)c2C2CC2)CC1 [Example 7, 1-{5-cyclopropyl-1-[1-(1-hydroxymethylcyclopropylcarbamoyl)piperidin-4-yl]-1H-pyrazole-4-carbonyl}-[(S)-3-(2-trifluoromethylphenyl)]pyrrolidine]

— US20100010219A1, “METHOD FOR PRODUCING PYRROLIDINE COMPOUND” (JAPAN TOBACCO INC., priority 2006, published 2010)
